US20090047682A1, “Method of detecting and predicting bronchodilatory response to beta agonist” (COUNCIL OF SCIENTIFIC AND INDUSTRIAL RESEARCH, priority 2004, published 2009)

System: β2AR
Conditions: Indian population; χ2=11.28, df=2, p=0.004

CC(C)(C)NCC(O)c1ccc(O)c(CO)c1 (stereo not shown) [salbutamol]
association of responder status to treatment with genotype at β2AR gene: strongly associated
